Experimental findings from PubChem BioAssay AID330 (DTP/NCI, 2004) are described below.

Where “and” joins values, the source holds several entries; their conditions need not be identical. Equal entries are not always repeated. Inconclusive results and toxic doses are left out.

In this assay the test system is P388 leukemia ip, CD2F1 mice, survival T/C. The assay is described as follows: NCI In Vivo Anticancer Drug Screen. Data for tumor model P388 Leukemia (intraperitoneal) in CD2F1 (CDF1) mice. The settings on record: endpoint: median survival time, higher = longer survival. An outline of the steps:
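Mice carrying the transplanted tumor received test compound or vehicle. Survival was recorded in each group, and the value is the treated-group measurement divided by that of the vehicle-treated control group.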

Where [1] appears, read: dose: 50.0 mg/kg/injection, schedule: Q01DX005 (ip), vehicle: Klucel (hydroxypropylcellulose) (HPC).
Where [2] appears, read: dose: 50.0 mg/kg/injection, schedule: Q01DX005 (ip), vehicle: saline with Tween-80.
The mark [3] stands for this setting: dose: 100.0 mg/kg/injection, schedule: Q01DX005 (ip), vehicle: Klucel (hydroxypropylcellulose) (HPC).
The mark [4] stands for this setting: dose: 200.0 mg/kg/injection, schedule: Q01DX005 (ip), vehicle: Klucel (hydroxypropylcellulose) (HPC).
The mark [5] stands for this setting: dose: 60.0 mg/kg/injection, schedule: Q01DX005 (ip), vehicle: saline with Tween-80.
Where [6] appears, read: dose: 120.0 mg/kg/injection, schedule: Q01DX005 (ip), vehicle: saline with Tween-80.
The mark [7] stands for this setting: dose: 240.0 mg/kg/injection, schedule: Q01DX005 (ip), vehicle: saline with Tween-80.
The mark [8] stands for this setting: dose: 100.0 mg/kg/injection, schedule: Q04DX003 (ip), vehicle: saline.
Where [9] appears, read: dose: 200.0 mg/kg/injection, schedule: Q04DX003 (ip), vehicle: saline.
Where [10] appears, read: dose: 400.0 mg/kg/injection, schedule: Q04DX002 (ip), vehicle: Klucel (hydroxypropylcellulose) (HPC).

Turning to `Cc1cccc(C)c1OC(=S)SSC(=S)Oc1c(C)cccc1C`, the T/C is 94 % of control (dose: 100.0 mg/kg/injection, schedule: Q01DX001 (ip), vehicle: Klucel (hydroxypropylcellulose) (HPC)) and 87 % of control (dose: 200.0 mg/kg/injection, schedule: Q01DX001 (ip), vehicle: Klucel (hydroxypropylcellulose) (HPC)).

In the case of `O=C(C[n+]1ccc2ccccc2c1)c1ccccc1`, the T/C (dose: 6.25 mg/kg/injection, schedule: Q01DX009 (ip), vehicle: saline) was 111 % of control; the T/C (dose: 12.5 mg/kg/injection, schedule: Q01DX009 (ip), vehicle: saline with Tween-80) was 113 % of control; the T/C (dose: 12.5 mg/kg/injection, schedule: Q01DX009 (ip), vehicle: saline) was 108 % of control; the T/C (dose: 25.0 mg/kg/injection, schedule: Q01DX009 (ip), vehicle: saline with Tween-80) is 104 % of control; the T/C (dose: 25.0 mg/kg/injection, schedule: Q01DX009 (ip), vehicle: saline) was 98 % of control; the T/C (dose: 50.0 mg/kg/injection, schedule: Q01DX009 (ip), vehicle: saline with Tween-80) was 104 % of control. Also, the T/C (dose: 50.0 mg/kg/injection, schedule: Q01DX009 (ip), vehicle: saline) was 110 % of control.

Consider `CS/C(=C/c1ccc2ccccc2[n+]1C)N1CCCCC1`, for which the T/C reads like this: (dose: 0.78 mg/kg/injection, schedule: Q01DX005 (ip), vehicle: saline with Tween-80) 109 % of control; (dose: 1.56 mg/kg/injection, schedule: Q01DX005 (ip), vehicle: saline with Tween-80) 116 % of control.

Consider `COc1c2ccc(OCC=C(C)C)cc2nc2occc12`, for which the T/C reads like this: (dose: 7.0 mg/kg/injection, schedule: Q01DX005 (ip), vehicle: Klucel + Tween-80) 106 % of control; (dose: 14.0 mg/kg/injection, schedule: Q01DX005 (ip), vehicle: Klucel + Tween-80) 103 % of control; (dose: 28.0 mg/kg/injection, schedule: Q01DX005 (ip), vehicle: Klucel + Tween-80) 99 % of control; (dose: 56.0 mg/kg/injection, schedule: Q01DX005 (ip), vehicle: Klucel + Tween-80) 103 % of control.

On to `O=c1[nH][nH]c(=O)c2c1CCC2`, for which the T/C is 100 % of control (dose: 6.25 mg/kg/injection, schedule: Q01DX009 (ip), vehicle: distilled water + Tween-80); 100 % of control (dose: 12.5 mg/kg/injection, schedule: Q01DX009 (ip), vehicle: distilled water + Tween-80); 100 % of control (dose: 25.0 mg/kg/injection, schedule: Q01DX009 (ip), vehicle: distilled water + Tween-80); 107 % of control (dose: 50.0 mg/kg/injection, schedule: Q01DX009 (ip), vehicle: distilled water + Tween-80); 103 % of control (dose: 100.0 mg/kg/injection, schedule: Q01DX009 (ip), vehicle: distilled water + Tween-80); 100 % of control (dose: 200.0 mg/kg/injection, schedule: Q01DX009 (ip), vehicle: distilled water + Tween-80).

With `Clc1ccc(C[Se][Se]Cc2ccc(Cl)cc2)cc1`, the T/C was 109 % of control (dose: 6.25 mg/kg/injection, schedule: Q01DX009 (ip), vehicle: Klucel (hydroxypropylcellulose) (HPC)); 108 % of control (dose: 12.5 mg/kg/injection, schedule: Q01DX009 (ip), vehicle: Klucel (hydroxypropylcellulose) (HPC)); 101 % of control (dose: 25.0 mg/kg/injection, schedule: Q01DX009 (ip), vehicle: Klucel (hydroxypropylcellulose) (HPC)).

`N#CC1C2C1C1C=CC2n2c(=O)n(-c3ccccc3)c(=O)n21` (stereo unspecified): the T/C was 99 % of control (dose: 6.25 mg/kg/injection, schedule: Q01DX005 (ip), vehicle: Klucel (hydroxypropylcellulose) (HPC)); 102 % of control (dose: 12.5 mg/kg/injection, schedule: Q01DX005 (ip), vehicle: Klucel (hydroxypropylcellulose) (HPC)); 108 % of control and 98 % of control (dose: 25.0 mg/kg/injection, schedule: Q01DX005 (ip), vehicle: Klucel (hydroxypropylcellulose) (HPC)); 99 % of control and 111 % of control under setting [1].

Take `O=C1CCCC2C3CCC[N+]4([O-])CCCC(O)(CN12)C34` (stereo unspecified): the T/C is, setting by setting: (dose: 6.2 mg/kg/injection, schedule: Q01DX007 (ip), vehicle: carboxymethylcellulose (CMC)) 100 % of control; (dose: 12.5 mg/kg/injection, schedule: Q01DX007 (ip), vehicle: carboxymethylcellulose (CMC)) 91 % of control; (dose: 25.0 mg/kg/injection, schedule: Q01DX007 (ip), vehicle: carboxymethylcellulose (CMC)) 91 % of control.

Take `COc1cccc(N2CCN(CC(O)COc3cc4c(c5c3CCCC5)CCCC4)CC2)c1` (stereo unspecified): the T/C (dose: 100.0 mg/kg/injection, schedule: Q04DX003 (ip), vehicle: Klucel (hydroxypropylcellulose) (HPC)) was 93 % of control; the T/C (dose: 200.0 mg/kg/injection, schedule: Q04DX003 (ip), vehicle: Klucel (hydroxypropylcellulose) (HPC)) is 92 % of control; the T/C (dose: 400.0 mg/kg/injection, schedule: Q04DX003 (ip), vehicle: Klucel (hydroxypropylcellulose) (HPC)) is 91 % of control.

Take `CCCc1nc(NC(=O)c2ccccc2)nc(NC(=O)c2ccccc2)n1`: the T/C runs as follows: under setting [2], 102 % of control; (dose: 100.0 mg/kg/injection, schedule: Q01DX005 (ip), vehicle: saline with Tween-80) 106 % of control; (dose: 200.0 mg/kg/injection, schedule: Q01DX005 (ip), vehicle: saline with Tween-80) 106 % of control.

On to `CCC1(C)C(=O)SC(=S)N1C` (stereo unspecified), for which the T/C is, setting by setting: under setting [1], 101 % of control; under setting [3], 97 % of control; under setting [4], 103 % of control.

Consider `CC(C)n1c2c(c3ccccc3c1=O)C(=O)c1ccccc1-2`, for which the T/C by setting is: (dose: 12.5 mg/kg/injection, schedule: Q01DX005 (ip), vehicle: saline with Tween-80) 95 % of control; (dose: 25.0 mg/kg/injection, schedule: Q01DX005 (ip), vehicle: saline with Tween-80) 86 % of control; under setting [2], 86 % of control.

For `COc1ccc(C2Cc3cc(OC)c(OC)cc3C(c3ccc(OC)c(OC)c3)N2)cc1OC` (stereo unspecified), the T/C by setting is: under setting [5], 97 % of control; under setting [6], 88 % of control; under setting [7], 89 % of control.

As for `O=C(O)/C=N/NS(=O)(=O)c1cccc([N+](=O)[O-])c1`, the T/C (dose: 25.0 mg/kg/injection, schedule: Q01DX009 (ip), vehicle: other) was 118 % of control and 119 % of control and 122 % of control; the T/C (dose: 50.0 mg/kg/injection, schedule: Q01DX009 (ip), vehicle: other) was 117 % of control; the T/C (dose: 200.0 mg/kg/injection, schedule: Q01DX009 (ip), vehicle: other) was 160 % of control.

For `O=c1cc(-c2ccccc2)oc2c(OCc3ccccc3)c(OCc3ccccc3)ccc12`, the T/C was 100 % of control (dose: 100.0 mg/kg/injection, schedule: Q04DX002 (ip), vehicle: saline with Tween-80); 102 % of control (dose: 200.0 mg/kg/injection, schedule: Q04DX002 (ip), vehicle: saline with Tween-80); 96 % of control (dose: 400.0 mg/kg/injection, schedule: Q04DX002 (ip), vehicle: saline with Tween-80).

As to `C=CCN1C(SC)=NC(=O)C1(c1ccccc1)c1ccccc1`, the T/C by setting is: under setting [1], 100 % of control; under setting [3], 104 % of control; under setting [4], 102 % of control.

On to `CC(C)(C(=O)O)C(Nc1ncnc2c1ncn2C1OC(CO)C(O)C1O)C(=O)O` (stereo unspecified), for which the T/C was 100 % of control under setting [8] and 106 % of control under setting [9].

In the case of `CC(C)(C)c1cc(C(c2cc3c(cc2O)OCO3)N2CCOCC2)cc(C(C)(C)C)c1O` (stereo unspecified), the T/C under setting [5] is 102 % of control and 111 % of control and 112 % of control; the T/C under setting [6] was 105 % of control and 111 % of control and 115 % of control; the T/C under setting [7] is 104 % of control; the T/C (dose: 480.0 mg/kg/injection, schedule: Q01DX005 (ip), vehicle: saline with Tween-80) is 123 % of control.

For the molecule `O=[N+]([O-])c1ccc(N=Nc2ccc(O)cc2O)cc1`, the T/C is 100 % of control under setting [8]; 114 % of control under setting [9]; 115 % of control (dose: 400.0 mg/kg/injection, schedule: Q04DX003 (ip), vehicle: saline).

As for `O=C1C2=C3C(=CC4COC3O4)C3C4COC(O4)C(=O)C3C2C2COC1O2` (stereo unspecified), the T/C (dose: 100.0 mg/kg/injection, schedule: Q04DX002 (ip), vehicle: Klucel (hydroxypropylcellulose) (HPC)) is 115 % of control; the T/C (dose: 200.0 mg/kg/injection, schedule: Q04DX002 (ip), vehicle: Klucel (hydroxypropylcellulose) (HPC)) was 109 % of control; the T/C under setting [10] was 115 % of control.

Consider `O=C1c2ccccc2-n2c1nc1ccc([N+](=O)[O-])cc1c2=O`, for which the T/C under setting [1] is 103 % of control, the T/C under setting [3] was 97 % of control, the T/C under setting [4] is 94 % of control and the T/C under setting [10] is 96 % of control.
